Data from US11987568B2, “Allosteric inhibitor of WEE1 kinase” (H. LEE MOFFITT CANCER CENTER AND RESEARCH INSTITUTE, INC., priority 2018, dated 2024).
Several values for one entry are separate records, joined by “and”; a condition that tells them apart may be missing. Identical values can stand only once.

Columns and labels:
[1] = molecular target: WEE1 (Homo sapiens, UniProt P30291); experiment: Endogenous WEE1 auto-phosphorylation in cells (WEE1 IP, pTyr immunoblot); assay type: cell-based; conditions: LNCaP cells, 10 μM overnight (FIG. 3B)
Chain of WEE1 (P30291 whole entry): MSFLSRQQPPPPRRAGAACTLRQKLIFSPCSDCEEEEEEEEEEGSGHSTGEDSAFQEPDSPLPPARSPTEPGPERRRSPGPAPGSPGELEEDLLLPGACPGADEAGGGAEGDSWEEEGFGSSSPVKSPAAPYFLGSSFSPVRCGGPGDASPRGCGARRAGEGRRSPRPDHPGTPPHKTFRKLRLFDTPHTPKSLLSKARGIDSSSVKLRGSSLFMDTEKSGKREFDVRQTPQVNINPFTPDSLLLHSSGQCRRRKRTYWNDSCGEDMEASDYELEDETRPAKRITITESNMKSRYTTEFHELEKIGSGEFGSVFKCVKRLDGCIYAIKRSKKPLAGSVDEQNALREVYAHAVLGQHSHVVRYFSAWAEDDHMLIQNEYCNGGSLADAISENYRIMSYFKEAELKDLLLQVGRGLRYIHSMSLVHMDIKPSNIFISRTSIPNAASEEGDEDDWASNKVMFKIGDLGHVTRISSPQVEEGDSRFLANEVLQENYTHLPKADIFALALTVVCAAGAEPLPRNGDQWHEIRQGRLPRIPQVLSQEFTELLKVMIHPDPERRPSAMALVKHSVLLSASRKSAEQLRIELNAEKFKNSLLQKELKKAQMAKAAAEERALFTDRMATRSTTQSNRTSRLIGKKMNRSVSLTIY
Description: The reaction mix was then subjected to immunoprecipitated with WEE1 antibodies, followed by immunoblotting with pTyr antibodies (top panel). As a control, purified ACK1 protein was incubated in the reaction buffer containing ATP, in presence of 100 nM epigenetic inhibitors. The reaction mix was then subjected to immunoprecipitated with ACK1 antibodies, followed by immunoblotting with pTyr antibodies (bottom panel). […] In addition, the lysates were also subjected to immunoblotting with actin antibodies (bottom panel). […] In addition, the lysates were also subjected to immunoblotting with actin antibodies (bottom panel). […] In addition, the lysates were also subjected to immunoblotting with actin antibodies (bottom panel). To determine direct binding of these compounds causing WEE1 inhibition, a full length WEE1 kinase protein was incubated with the compounds. […] These inhibitors were further validated by assessing their ability to suppress endogenous WEEE activity; LNCaP cells were treated with 10 μM of these compounds overnight.

[2] = test system: histone H2B Tyr37-phopshorylation (pY37-H2B); experiment: WEE1 epigenetic activity in cells: pY37-H2B immunoprecipitation/immunoblot; assay type: cell-based, human; conditions: LNCaP cells
Excerpt: FIGS. 2A-2B show identification of 3 distinct types of inhibitors. […] In addition, the lysates were also subjected to by immunoblotting with pY15-Cdc2 or actin antibodies (middle and bottom panels). […] The number vehicle treated cells were used as control and percent of surviving cells were plotted.
FIGS. 4A-4B show structures of ‘hits’ identified in WEE1 epigenetic inhibitor screen. […] The reaction mix was then subjected to immunoprecipitated with WEE1 antibodies, followed by immunoblotting with pTyr antibodies. […] In addition, the lysates were also subjected to immunoblotting with actin antibodies (bottom panel).
FIGS. 7A-7C show identification of WEIN-159 as a potent WEE1 epigenetic inhibitor. […] In addition, lysates were immunoprecipitated with pY37-H2B antibodies, followed by immunoblotting with H2B antibodies (middle panel). […] The lysates were also subjected to immunoblotting with pY15-Cdc2 antibodies and were immunoprecipitated with pY37-H2B antibodies, followed by immunoblotting with H2B antibodies (middle panels). In addition, the lysates were also subjected to immunoblotting with H2B antibodies (bottom panel). […] The lysates were also subjected to immunoblotting with pY15-Cdc2 antibodies and were immunoprecipitated with pY37-H2B antibodies, followed by immunoblotting with H2B antibodies (middle panels). In addition, the lysates were also subjected to immunoblotting with actin antibodies (bottom panel).
Identification of compounds with WEE1 epigenetic inhibitory role: 14 ‘hits’ that were identified in the screen are shown in FIG. 1. These compounds were further tested for their ability to inhibit WEE1 epigenetic activity. Prostate cancer derived LNCaP cells were treated with 3 uM of compounds for 48 hours. Cells were harvested, lysates were prepared, and WEE1 epigenetic activity was detected by determining histone H2B Tyr37-phopshorylation (pY37-H2B). Lysates were also assessed for WEE1 cell cycle inhibitory activity by determining Cdc2 Tyr15-phosphorylation (pY15-Cdc2). […] These are named as ‘Cell Cycle’ inhibitors. […] These compounds are the ‘Epigenetic’ inhibitors.

[3] = Microsome Stability, Human; assay type: in vitro ADME
Description: (§1) ADME studies with 55152 (18-B3) and 367416 (16-G9): The solubility, microsome stability and plasma stability of these two compounds were also determined (Table 2).

[4] = LogD; assay type: physicochemical; conditions: pH 7.4
Description: as §1

[5] = test system: 5hmC levels; experiment: 5-hmC slot blot of genomic DNA; assay type: cell-based; conditions: 10 uM, 16 hr
Description: (§2) WM66 cells (FIG. 5A) or primary melanocytes (FIG. 5B) were treated with vehicle or compounds (10 uM) for 16 hr. Total RNA was isolated followed by qRT-PCR with IDH2 and actin primers. FIG. 5C indicated cells were treated with vehicle or compounds (10 uM) for 16 hr. Total genomic DNA was isolated, slot-blotted onto a nitrocellulose membrane, followed by blotting with 5-hmC antibodies (top panels). Blots were also stained with methylene blue, to determine equal loading of DNA (bottom panel).
(§3) Identification of 55152 (18-B3) scaffold as a WEE1 epigenetic inhibitor: Two major hits, 367416 (16-G9) and 55152 (18-B3) were taken up for further characterization. […] Accordingly, melanoma cell line WM66 and primary melanocytes were treated with inhibitors and IDH2 mRNA levels were measure by real time PCR.

[6] = Plasma Stability, Mouse; assay type: in vitro ADME
Description: as §1

[7] = Plasma Stability, Human; assay type: in vitro ADME
Description: as §1

[8] = molecular target: full length human WEE1 kinase (Homo sapiens, UniProt P30291); experiment: ELISA based assay: WEE1 phosphorylation of biotinylated H2B peptide spanning Tyr37; assay type: biochemical; design: A full length human WEE1 kinase that was enzymatically active was purified from insect cell; conditions: Table 1; several values in a cell are repeat determinations
Chain of full length human WEE1 kinase (P30291 whole entry): as above
Excerpt: Designing of a Novel inhibitor Screening Platform: […] A full length human WEE1 kinase that was enzymatically active was purified from insect cell. […] NCI diversity set compound library ( 1600 compounds) was used for the screening.

[9] = test system: IDH2 mRNA in melanoma cell line WM66; experiment: IDH2 mRNA qRT-PCR in WM66 cells; assay type: cell-based; conditions: 10 uM, 16 hr
Description: as §2, §3

[10] = molecular target: T1, Wee1 KD (Homo sapiens, UniProt P30291); experiment: Differential Scanning Fluorimetry (DSF), Wee1 KD; assay type: binding; conditions: kinase domain purified from HEK293T cells
T1 construct: WEE1 & WEE2 (as control) kinase domains from mammalian cells (HEK293T cells) were purified
T1 sequence (P30291 299-569): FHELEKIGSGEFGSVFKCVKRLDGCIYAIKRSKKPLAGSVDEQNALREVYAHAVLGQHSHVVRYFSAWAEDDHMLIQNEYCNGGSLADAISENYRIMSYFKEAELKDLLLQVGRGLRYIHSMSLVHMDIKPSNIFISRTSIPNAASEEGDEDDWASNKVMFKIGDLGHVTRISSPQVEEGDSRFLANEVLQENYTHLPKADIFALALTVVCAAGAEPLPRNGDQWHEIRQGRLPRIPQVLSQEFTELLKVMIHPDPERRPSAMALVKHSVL
Description: (§4) Binding study of WEE1 epigenetic inhibitors: To identify the precise binding region/domain of WEE1 epigenetic inhibitors, WEE1 & WEE2 (as control) kinase domains from mammalian cells (HEK293T cells) were purified. The binding of inhibitors was assessed using Differential Scanning Fluorimetry (DSF).

[11] = test system: LAPC4 cells; experiment: LAPC4 cell proliferation, trypan blue exclusion assay; assay type: cell-based; conditions: Homo sapiens, 96 hr, viable cells by trypan blue exclusion
Excerpt: FIGS. 2A-2B show identification of 3 distinct types of inhibitors. […] In addition, the lysates were also subjected to by immunoblotting with […]-Cdc2 or actin antibodies (middle and bottom panels). […] The number vehicle treated cells were used as control and percent of surviving cells were plotted. […] The number of vehicle treated cells were used as control and percent of surviving cells were plotted. […] The number vehicle treated cells were used as control and percent of surviving cells were plotted. 7 of these epigenetic inhibitors in various assays such as cell proliferation assay, an in vitro kinase assay were performed and WEE1 autophosphorylation in vivo was determined. Prostate cancer derived LAPC4 cells were treated with inhibitors and its effect on cell proliferation was examined.

[12] = molecular target: T2, Wee2 KD (Homo sapiens, UniProt P0C1S8); experiment: Differential Scanning Fluorimetry (DSF), Wee2 KD; assay type: binding; conditions: kinase domain purified from HEK293T cells
T2 construct: WEE1 & WEE2 (as control) kinase domains from mammalian cells (HEK293T cells) were purified
T2 sequence (P0C1S8 212-486): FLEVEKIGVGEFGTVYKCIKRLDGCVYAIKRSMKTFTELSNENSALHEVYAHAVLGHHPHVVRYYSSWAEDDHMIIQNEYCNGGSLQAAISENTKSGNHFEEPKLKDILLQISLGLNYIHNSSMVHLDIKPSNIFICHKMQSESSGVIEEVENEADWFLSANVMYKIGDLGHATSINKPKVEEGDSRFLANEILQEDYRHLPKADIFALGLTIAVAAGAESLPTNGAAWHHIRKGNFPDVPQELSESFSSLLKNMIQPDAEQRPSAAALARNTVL
Description: as §4

Nc1ccc(NC(=O)c2ccc(C(=O)Nc3ccc(N)cc3)cc2)cc1 [SG5-061, N^1,N^4-bis(4-aminophenyl)terephthalamide]
WEE1 auto-phosphorylation [1]: significant loss of WEE1 auto-phosphorylation
H2B Tyr37-phosphorylation (pY37-H2B) ([2]; 3 uM, 48 hours (FIG. 2A)): specifically suppressed H2B Tyr37-phosphotylation
H2B Tyr37-phosphorylation ([2]; 10 μM, 12 hours (FIG. 4B)): complete loss of H2B Tyr37-phosphorylation
Microsome Stability % remaining @ 1 hr Human [3]: 64.56%
logD [4]: 0.98
5hmC levels [5]: Corresponding increase in 5hmC levels
Plasma Stability % remaining @ 3 hrs Mouse [6]: 50.76%
Plasma Stability % remaining @ 3 hrs Human [7]: 58.57%
ELISA Inhibition (%) [8]: 112% and 81% and 82% and 87% and 83% and 100% and 106%
IDH2 mRNA levels [9]: Significant increase in IDH2 mRNA levels
ΔTm for Wee1 KD (° C.) [10]: 0.5 °C
ΔTm for Wee1 KD (° C.) ([10]; listed as 55152 (18-B3)): 0.8 °C
IC50 [11]: 1 µM
ΔTm for Wee2 KD (° C.) [12]: 0.1 °C
ΔTm for Wee2 KD (° C.) ([12]; listed as 55152 (18-B3)): 1.1 °C
